In data set [1] the target is T1, human PGP (Homo sapiens, UniProt P08183).
Data set [2] addresses T1, human PGP. Put plainly: Inhibition of PGP-mediated [3H]-digoxin transport in human PGP-expressing LLC-PK1 (15B-J) cell monolayers. The note with it: for Concentrations at which inhibitory behavior was exhibited: pH 7.2.
Data set [3] has as its system CLA (control) Monolayer, LLC-PK1 cells. The following applies: pig, 120 min, 10 µM, pH 7.2.
In data set [4] the target is human PGP membranes (PGP-ATPase) (Homo sapiens, UniProt P08183). The procedure:
The DMSO concentration (1.0%) was constant for all conditions within the experiment.
The test substances were incubated in the PGP membranes and supplemented with MgATP, with and without sodium orthovanadate present. Orthovanadate inhibits PGP by trapping MgADP in the nucleotide binding site. Thus, the ATPase activity measured in the presence of orthovanadate represents non-PGP ATPase activity and was subtracted from the activity generated without orthovanadate to yield vanadate-sensitive ATPase activity.
(§1) ATPase assays were conducted in 96-well microtiter plates. A 0.06 mL reaction mixture containing 40 μg PGP membranes, test substance, and 4 mM MgATP, in buffer containing 50 mM Tris-MES, 2 mM EGTA, 50 mM KCl, 2 mM dithiothreitol, and 5 mM sodium azide, plus organic solvent was incubated at 37° C. for 20 minutes. […] Identical reaction mixtures containing 100 μM sodium orthovanadate were assayed in parallel. The reactions were stopped by the addition of 30 μl of 10% SDS+Antifoam A. The incubations were followed with addition of 200 μl of 35 mM Ammonium Molybdate in 15 mM Zinc Acetate:10% Ascorbic Acid (1:4) and incubated for an additional 20 minutes at 37° C. Additionally, 0.06 mL aliquots of potassium phosphate standards prepared in the buffer described above, were incubated in the plates containing the test and control substances, with SDS and detection reagent added. The liberation of inorganic phosphate was detected by its absorbance at 800 nm and quantitated by comparing the absorbance to a phosphate standard curve. The concentration dependence of the PGP was analyzed for evidence of saturation of PGP-ATPase activity, and apparent kinetic parameters were calculated by non-linear regression.
as §1, with “plates.” for “plates. A 0.06 mL reaction mixture containing 40 μg PGP membranes, test substance, and 4 mM MgATP, in buffer containing 50 mM Tris-MES, 2 mM EGTA, 50 mM KCl, 2 mM dithiothreitol, and 5 mM sodium azide, plus organic solvent was incubated at 37° C. for 20 minutes.”, “PGP-associated ATPase” for “PGP-ATPase”
as §1, with “The effect of tobramycin on PGP-associated ATPase activity was also assayed. The tobramycin was incubated in human PGP membranes (BD Biosciences, Franklin Lakes, N.J., Gentest Cat. K228) and supplemented with MGATP, with and without sodium orthovanadate present. ATPase” for “ATPase”, “tobramycin,” for “test substance,”, “solvent (1% DMSO)” for “solvent”, “curve.” for “curve. The concentration dependence of the PGP was analyzed for evidence of saturation of PGP-ATPase activity, and apparent kinetic parameters were calculated by non-linear regression.”

In data set [5] the test system is Plasmodium falciparum strains. The following applies: more rapidly; cited from earlier work.

Where two headings read alike, the source gives them in different places.

Chain of human PGP membranes (PGP-ATPase) (P08183 whole entry): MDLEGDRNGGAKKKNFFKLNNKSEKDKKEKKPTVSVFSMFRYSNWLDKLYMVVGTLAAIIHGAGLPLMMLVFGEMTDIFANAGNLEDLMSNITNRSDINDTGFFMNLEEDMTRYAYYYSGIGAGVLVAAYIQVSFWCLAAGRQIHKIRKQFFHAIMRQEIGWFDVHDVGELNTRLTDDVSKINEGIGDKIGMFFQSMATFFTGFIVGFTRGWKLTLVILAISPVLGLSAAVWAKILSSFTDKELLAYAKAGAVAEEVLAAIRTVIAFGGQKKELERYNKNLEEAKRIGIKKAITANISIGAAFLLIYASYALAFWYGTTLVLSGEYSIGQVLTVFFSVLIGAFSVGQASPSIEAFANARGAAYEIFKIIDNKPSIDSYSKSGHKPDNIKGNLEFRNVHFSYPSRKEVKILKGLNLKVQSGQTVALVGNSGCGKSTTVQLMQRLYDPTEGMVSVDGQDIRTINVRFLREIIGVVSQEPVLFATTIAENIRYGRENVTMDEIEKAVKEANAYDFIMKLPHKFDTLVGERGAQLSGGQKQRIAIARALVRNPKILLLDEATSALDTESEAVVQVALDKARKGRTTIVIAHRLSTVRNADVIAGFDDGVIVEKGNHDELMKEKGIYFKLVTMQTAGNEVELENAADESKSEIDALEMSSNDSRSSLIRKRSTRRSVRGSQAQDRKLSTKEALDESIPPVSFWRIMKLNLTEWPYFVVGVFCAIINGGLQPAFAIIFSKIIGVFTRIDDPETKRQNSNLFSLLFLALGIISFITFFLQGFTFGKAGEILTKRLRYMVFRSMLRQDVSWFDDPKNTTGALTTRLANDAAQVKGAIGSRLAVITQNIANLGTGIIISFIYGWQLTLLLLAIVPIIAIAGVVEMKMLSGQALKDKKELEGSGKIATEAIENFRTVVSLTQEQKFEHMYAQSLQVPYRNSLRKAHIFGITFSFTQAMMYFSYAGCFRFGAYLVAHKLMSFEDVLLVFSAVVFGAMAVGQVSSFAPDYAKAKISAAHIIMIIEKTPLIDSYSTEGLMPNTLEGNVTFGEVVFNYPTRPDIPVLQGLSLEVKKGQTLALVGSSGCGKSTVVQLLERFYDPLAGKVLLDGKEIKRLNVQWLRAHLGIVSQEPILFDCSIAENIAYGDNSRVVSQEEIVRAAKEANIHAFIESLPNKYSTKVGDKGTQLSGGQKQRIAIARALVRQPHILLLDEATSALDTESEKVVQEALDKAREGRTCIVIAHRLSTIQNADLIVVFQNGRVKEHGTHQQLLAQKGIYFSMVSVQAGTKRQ
T1 sequence (P08183 whole entry): as above

On to `Oc1ccc2c3c1O[C@H]1[C@H](O)CC[C@@]4(O)[C@@H](C2)N(CC2CC2)CC[C@]314` [6-β-Naltrexol, 6-β-naltrexol], for which, at human PGP [1], the “Concentration dependence of inhibition of digoxin transport (result in words)” value is “did not appear to be concentration-dependent”. Besides, at human PGP [2] (concentration range of 0.0001 to 30 μM), the “Inhibition of digoxin efflux, mean” value is 8.5 +/−7.1%. At human PGP [2] (ketoconazole at 25 μM, test substance over the concentration range tested), the “Inhibition of PGP-mediated digoxin transport (result in words)” value is on record as “inhibitor of PGP-mediated digoxin transport”.

With `CC[C@H]1OC(=O)[C@H](C)[C@@H](O[C@H]2C[C@@](C)(OC)[C@@H](O)[C@H](C)O2)[C@H](C)[C@@H](O[C@@H]2O[C@H](C)C[C@H](N(C)C)[C@H]2O)[C@](C)(O)C[C@@H](C)C(=O)[C@H](C)[C@@H](O)[C@]1(C)O` [Erythromycin, erythromycin], the “pmoles in Receiver” value in data set [3] was 6.3 pmol. Besides, in data set [4], the “Effect on PGP-associated ATPase activity (result in words)” value (“Effect on PGP-associated ATPase activity” for short) was “stimulate PGP-associated ATPase activity”. In addition, the “ATPase Activity” value is 1.1 nmol/mg/min in data set [4] (human, 20 min, 0.1 μM); 2.0 nmol/mg/min in data set [4] (human, 20 min, 0.2 µM); 0.8 nmol/mg/min in data set [4] (human, 20 min, 0.4 µM); 0.1 nmol/mg/min in data set [4] (human, 20 min, 0.8 µM); 0.5 nmol/mg/min in data set [4] (human, 20 min, 3.13 µM); 0.6 nmol/mg/min in data set [4] (human, 20 min, 6.25 µM). Further, the “ATPase Activity” value in data set [4] (human, 20 min, 12.5 µM) was found to be 2.8 nmol/mg/min; in data set [4] (human, 20 min, 25 µM), 8.2 nmol/mg/min; in data set [4] (human, 20 min, 50 µM), 14.0 nmol/mg/min; in data set [4] (human, 20 min, 100 μM), 15.6 nmol/mg/min.

For the compound `C=C1CC[C@@]2(O)[C@H]3Cc4ccc(O)c5c4[C@@]2(CCN3CC2CC2)[C@H]1O5` [Nalmefene, nalmefene], at human PGP [2], the “Concentration dependence of inhibition of digoxin transport (result in words)” value is listed as “increasingly inhibited in response to increasing concentration”. For the same compound, at human PGP [2] (human, LLC-PK1, pH 7.2), the “Efflux ratio B→A/A→B, Hi Affinity/Low Cap” value is listed as 4.2 (3.0) and the “Efflux ratio B→A/A→B, Low Affinity/Hi Cap” value is listed as 2.6 (1.9). Moreover, the “Concentrations at which inhibitory behavior was exhibited” value on human PGP [2] (human) was in the range of 0.1 to 100 µM. Moreover, in data set [4] (semi-quantitative assay), the “Effect on PGP-associated ATPase activity” value is reported as “not to limit the ATPase activity”.

Consider `C=CCN1CC[C@]23c4c5ccc(O)c4O[C@H]2C(=O)CC[C@@]3(O)[C@H]1C5` [Naloxone, naloxone], for which, on human PGP [2], the “Concentration dependence of inhibition of digoxin transport (result in words)” value is listed as “not concentration-dependent”. In addition, the “Concentrations at which inhibitory behavior was exhibited” value on human PGP [2] (human) lay in the range of 0.1 to 100 µM. Further, the “Effect on PGP-associated ATPase activity” value in data set [4] (semi-quantitative assay) is “not to limit the ATPase activity”.

With `O=C1CC[C@@]2(O)[C@H]3Cc4ccc(O)c5c4[C@@]2(CCN3CC2CC2)[C@H]1O5` [Naltrexone, naltrexone], the “ATPase Activity” value is -0.3 nmol/mg/min in data set [4] (0.003 μM test substance); 0.0 nmol/mg/min in data set [4] (0.01 μM test substance); -1.6 nmol/mg/min in data set [4] (0.03 μM test substance); -0.7 nmol/mg/min in data set [4] (0.1 μM test substance); -1.4 nmol/mg/min in data set [4] (0.3 μM test substance); -0.8 nmol/mg/min in data set [4] (1.0 μM test substance). Moreover, the “ATPase Activity” value in data set [4] (3.0 μM test substance) is 2.1 nmol/mg/min; in data set [4] (10 μM test substance) it was 2.0 nmol/mg/min; in data set [4] (30 μM test substance), -2.0 nmol/mg/min; in data set [4] (100 μM test substance) it was 4.6 nmol/mg/min.

As for `NC[C@H]1O[C@H](O[C@H]2[C@H](O)[C@@H](O[C@H]3O[C@H](CO)[C@@H](O)[C@H](N)[C@H]3O)[C@H](N)C[C@@H]2N)[C@H](N)C[C@@H]1O` [Tobramycin, tobramycin], the “Effect on PGP-associated ATPase activity” value in data set [4] is reported as “stimulate PGP-associated ATPase activity”. The “ATPase Activity” value in data set [4] (human, 20 min, 0.1 μM) was -1.6 nmol/mg/min; in data set [4] (human, 20 min, 0.2 µM), -2.6 nmol/mg/min; in data set [4] (human, 20 min, 0.4 µM), -2.6 nmol/mg/min; in data set [4] (human, 20 min, 0.8 µM) it was -3.3 nmol/mg/min; in data set [4] (human, 20 min, 3.13 µM), -2.6 nmol/mg/min; in data set [4] (human, 20 min, 6.25 µM), -1.4 nmol/mg/min. Also, the “ATPase Activity” value in data set [4] (human, 20 min, 12.5 µM) was -1.0 nmol/mg/min; in data set [4] (human, 20 min, 25 µM) it was 0.2 nmol/mg/min; in data set [4] (human, 20 min, 50 µM), 0.3 nmol/mg/min; in data set [4] (human, 20 min, 100 μM) it was 1.5 nmol/mg/min.

Regarding `CCN(CC)CCCC(C)Nc1ccnc2cc(Cl)ccc12` (stereo not drawn) [chloroquine], the “Efflux of the drug, chloroquine-resistant versus chloroquine-sensitive strains” value in data set [5] is given as 40-50 times.

(Values after US20040214848A1, “Inhibitors of ABC drug transporters in microbial cells” (priority 2001, published 2004).)
